How the values were obtained:
brain of ischemic mice = assay: Cerebral ischemia in mice with common carotid artery ligation and reperfusion (brain LDH, SOD); type: in vivo; details: 2 mg/kg
Experimental: Experimental grouping: a control group and a model group (respectively administrating an equal volume of normal salt), a positive control group (nimodipine, 2 mg/kg), sample A groups (200, 100, and 50 mg/kg), and sample B groups (200, 100, and 50 mg/kg), the injection dosage being […].
Animal model setup: the grouped mice were respectively administrated test substance, nimodipine or normal salt by tail intravenous injection. After 15 minutes, the mice were anesthetized with 3.5% chloral hydrate, fixed in the back. The right and left common carotid artery and vagus nerve were exposed, and 4-0 suture was inserted under the bilateral carotid arteries. The line was tightened to block blood flow for 5 minutes. Then the line was loosened to make the blood reperfusion for 10 minutes. The operation was repeated three times, and an ischemia-reperfusion model in mice was established. After the last reperfusion, the mice were decapitated and brain collected. In the control group, only the bilateral carotid arteries were exposed, without line being inserted.

decapitated mice [1] = assay: Breathing time and breathing frequency in decapitated mice; type: in vivo, ICR mice; details: 2 mg/kg, tail i.v., decapitated 15 minutes after administration
Experimental: (§1) ICR mice (equally divided between male and female) were divided randomly in a blank control group, a positive control group and dosage groups of sample A (200, 100, and 50 mg/kg) and sample B (400, 200, 100, 50 mg/kg). The mice in medical groups were administrated by tail intravenous injection, and the dosage was […]. The positive control group was administrated nimodipine (2 mg/kg) by tail intravenous injection. The model group was administrated normal salt. At 15 minutes after administration, the mice were decapitated by a pair of scissors. The mouth breathing time, breathing frequency and brain water content were recorded and compared with other groups.

decapitated mice [2] = assay: Brain index and brain water content in decapitated mice; type: in vivo, ICR mice; details: 2 mg/kg
Experimental: as §1
Measurement of brain water content: whole brains were collected, after the wet weight was obtained, they were dried in an oven at 100° C. for 24 hours, the average value was taken to calculate brain water content: brain water content(%)=[…]. Brain index: brain index=brain wet weight (g)/body weight (g)×100%.

COCCOC(=O)C1=C(C)NC(C)=C(C(=O)OC(C)C)C1c1cccc([N+](=O)[O-])c1 (stereo not drawn) [Nimodipine, nimodipine]
LDH (U/mg) (brain of ischemic mice): 11.3 ± 6.6 U/mg | SOD (U/mg) (brain of ischemic mice): 144.77 ± 21.61 U/mg | Breathing frequency (times) (decapitated mice [1]): 17.0 ± 3.2 times | Breathing time (decapitated mice [1]): 23.8 ± 3.2 s | Brain index (%) (decapitated mice [2]): 1.40 ± 0.14 % | Brain water content (%) (decapitated mice [2]): 75.1 ± 0.9 %
